The source of these data is ChEMBL document CHEMBL3091411, “Quercetin inhibits inflammatory bone resorption in a mouse periodontitis model” (J Nat Prod, 2013).

Active and inactive are the calls of the source. The rule behind the calls is not given here.

For data set [1], the system named is Mus musculus. Nature of the data set: Antiinflammatory activity in Aggregatibacter actinomycetemcomitans infected Balb/c mouse model assessed as inhibition of IL-17 production at 100 mg/kg, sc for 15 days post Aggregatibacter actinomycetemcomitans-challenge by ELISA. The data set is classed as functional, organism-based. The arrangement: dose 100 mg/kg.
The subject of data set [2] is Mus musculus. Nature of the data set: Antiinflammatory activity in Aggregatibacter actinomycetemcomitans infected Balb/c mouse model assessed as inhibition of IL-1beta production at 100 mg/kg, sc for 15 days post Aggregatibacter actinomycetemcomitans-challenge by ELISA. The arrangement: dose 100 mg/kg. Type of data set: functional, organism-based. Background: ELISA stands for enzyme-linked immunosorbent assay.

Data set [3] concerns Mus musculus. Description: Effect on OPG expression in Aggregatibacter actinomycetemcomitans infected Balb/c mouse model at 100 mg/kg, sc for 15 days post Aggregatibacter actinomycetemcomitans-challenge by Western blotting analysis. Set-up: dose 100 mg/kg, route subcutaneous. The data set is classed as ADME, organism-based. As to conditions: in vivo, 360 h.
For data set [4], the system named is Mus musculus. Nature of the data set: Antiinflammatory activity in Aggregatibacter actinomycetemcomitans infected Balb/c mouse model assessed as inhibition of TNFalpha production at 100 mg/kg, sc for 15 days post Aggregatibacter actinomycetemcomitans-challenge by ELISA. The data set is classed as functional, organism-based. The arrangement: dose 100 mg/kg.
Data set [5] relates to Aggregatibacter actinomycetemcomitans. Description: Antimicrobial activity against Aggregatibacter actinomycetemcomitans infected in Balb/c mouse measured per 10^6 colonies at 100 mg/kg, sc measured 14 days post-infection by Gram staining technique (reference value: 6.41 +/- 0.96). The data set is classed as functional. As to conditions: route subcutaneous.
Data set [6] deals with Mus musculus. Description: Antiperiodontitic activity in Aggregatibacter actinomycetemcomitans infected Balb/c mouse model assessed as downregulation of ICAM-1 expression at 100 mg/kg, sc for 15 days post Aggregatibacter actinomycetemcomitans-challenge by Western blotting analysis. Type of data set: functional, organism-based. Set-up: dose 100 mg/kg. For orientation: A western blot detects proteins with antibodies after separation by electrophoresis.

Data set [7] deals with Mus musculus. Nature of the data set: Antiperiodontitic activity in Aggregatibacter actinomycetemcomitans infected Balb/c mouse model assessed as inhibition of alveolar bone loss at 100 mg/kg, sc for 15 days post Aggregatibacter actinomycetemcomitans-challenge by methylene blue staining-based microscopic analysis. Type of data set: functional, organism-based. Set-up: dose 100 mg/kg.

The test system of data set [8] is Mus musculus. Nature of the data set: Antiperiodontitic activity in Aggregatibacter actinomycetemcomitans infected Balb/c mouse model assessed as downregulation of RANKL expression at 100 mg/kg, sc for 15 days post Aggregatibacter actinomycetemcomitans-challenge by Western blotting analysis. The data set is classed as functional, organism-based. Set-up: dose 100 mg/kg.

With `O=c1c(O)c(-c2ccc(O)c(O)c2)oc2cc(O)cc(O)c12` [QUERCETIN], the inhibition result in the data set on Mus musculus [1], with Mus musculus [2], with Mus musculus [4] and in the data set with Mus musculus [7] was “Active” throughout. Also, the Activity result in the data set with Mus musculus [3] is listed as “Non-toxic”. Moreover, in data set [5], the CFU is 5.86. In addition, the result with Mus musculus [6] and in the data set with Mus musculus [8] was Active.
